Experimental data from patent publication US5593985A, “Cephalosporin compounds” (priority 1994, dated 1997).
Converted amounts (≈) assume the structure as drawn.

How the values were obtained:
[1] = system: Streptococcus pyogenes A 77; assay: MIC, standard strain 2; format: cell-based; conditions: A77, S. pyogenes A 77, two-fold dilution, Muller Hinton agar, 10^7 CFU/ml, 37° C., 18 hours, read-out: Minimal Inhibitory Concentration(MIC)
Experimental: (§1) In order to illustrate antibiotic effectiveness of the compounds of the present invention, the minimal inhibitory concentrations (MIC's) of the representative compounds were determined against standard strains and compared with ceftazidime and cefpirome, which were used as control compounds.
(§2) The MIC values were taken by employing a two-fold dilution method: that is, two-fold serial dilutions of each of the test compounds were made from initial concentration of […]; each 1.5 ml of them was dispersed in 13.5 ml of Muller Hinton agar medium to adjust to […]; the standard test strain which had the concentration of 10^7 CFU/ml was inoculated by medium;and these were incubated at 37° C. for 18 hours.
(§3) The test used twenty kinds of standard test strains which induced urinary tract infections, respiratory organ infections, skin soft tissue infections, plasma infections, gastrointestinal infections, central nervous system infections, most of which produce β-lactamase. The standard test strains used are as follows:
2. Streptococcus pyogenes A 77

Streptococcus faecium 8b = assay: MIC, standard strain 3; format: cell-based; conditions: Enterococcus faecium; S. faecium 8b; two-fold dilution, Muller Hinton agar, 10^7 CFU/ml, 37° C., 18 hours; read-out: Minimal Inhibitory Concentration(MIC)
Experimental: as §1, §2, §3
3. Streptococcus faecium 8b

[2] = system: Staphylococcus aureus 285; assay: MIC, standard strain 5; format: cell-based; conditions: Staphylococcus aureus; S. aureus 285; two-fold dilution, Muller Hinton agar, 10^7 CFU/ml, 37° C., 18 hours; read-out: Minimal Inhibitory Concentration(MIC)
Experimental: as §1, §2, §3
5. Staphylococcus aureus 285

Escherichia coli 0 55 = assay: MIC, standard strain 7; format: cell-based; conditions: 055, E. coli 0 55, two-fold dilution, Muller Hinton agar, 10^7 CFU/ml, 37° C., 18 hours, read-out: Minimal Inhibitory Concentration(MIC)
Experimental: as §1, §2
(§4) The test used twenty kinds of standard test strains which induced urinary tract infections, respiratory organ infections, skin soft tissue infections, plasma infections, gastrointestinal infections, central nervous system infections, most of which produce β-lactamase.

Escherichia coli 1507 E = assay: MIC, standard strain 11; format: cell-based; conditions: E. coli 1507 E, two-fold dilution, Muller Hinton agar, 10^7 CFU/ml, 37° C., 18 hours, read-out: Minimal Inhibitory Concentration(MIC)
Experimental: as §1, §2, §4

[3] = system: Pseudomonas aeruginosa 1771M; assay: MIC, standard strain 15; format: cell-based; conditions: 18 h, read-out: Minimal Inhibitory Concentration(MIC)
Experimental: as §1, §2, §3
15. Pseudomonas aeruginosa 1771M

[4] = system: Enterobacter cloacae 1321 E; assay: MIC, standard strain 20; format: cell-based; conditions: E. cloacae 1321 E, two-fold dilution, Muller Hinton agar, 10^7 CFU/ml, 37° C., 18 hours, read-out: Minimal Inhibitory Concentration(MIC)
Experimental: as §1, §2, §3
20. Enterobacter cloacae 1321 E

ATCC = assay: MIC, clinically separated strains; format: cell-based; conditions: 18 h; 20 strains
Experimental: as §2

D Streptococcus I = assay: MIC, clinically separated strains; format: cell-based; conditions: 18 h
Experimental: as §2

Enterobactercloacas = assay: MIC, clinically separated strains; format: cell-based; conditions: Enterobacter cloacae, 18 h, 20 clinical strains
Experimental: as §2

Enterococcus II = assay: MIC, clinically separated strains; format: cell-based; conditions: 18 h
Experimental: as §2

Enterococcus I = assay: MIC, clinically separated strains; format: cell-based; conditions: 18 h
Experimental: as §2

Escherichia coli = assay: MIC, clinically separated strains; format: cell-based; conditions: 18 h
Experimental: as §2

Klebsiella oxytoca = assay: MIC, clinically separated strains; format: cell-based; conditions: 18 h
Experimental: as §2

MRSA(KAIST) = assay: MIC, clinically separated strains; format: cell-based; conditions: Staphylococcus aureus, 18 h
Experimental: as §2

Methicillin Resistant = assay: MIC, clinically separated strains; format: cell-based; conditions: 18 h, 19 clinical strains
Experimental: as §2

Morganella morganii = assay: MIC, clinically separated strains; format: cell-based; conditions: 18 h
Experimental: as §2

Proteus mirabilis = assay: MIC, clinically separated strains; format: cell-based; conditions: 18 h
Experimental: as §2

Proteus vulgaris = assay: MIC, clinically separated strains; format: cell-based; conditions: 18 h
Experimental: as §2

Providencia rettgeri = assay: MIC, clinically separated strains; format: cell-based; conditions: 18 h
Experimental: as §2

Pseudomonas II = assay: MIC, clinically separated strains; format: cell-based; conditions: 18 h
Experimental: as §2

Pseudomonas I = assay: MIC, clinically separated strains; format: cell-based; conditions: 18 h
Experimental: as §2

Pseudomonas aeruginosa = assay: MIC, clinically separated strains; format: cell-based; conditions: 18 h
Experimental: as §2

Serratia spp = assay: MIC, clinically separated strains; format: cell-based; conditions: 18 h
Experimental: as §2

Streptococcus II = assay: MIC, clinically separated strains; format: cell-based; conditions: 18 h
Experimental: as §2

D StreptococcusII = assay: MIC, clinically separated strains; format: cell-based, D Streptococcus; conditions: Streptococcus, 18 h, 19 clinical strains
Experimental: as §2

[5] = read-out: range of MIC, 20 clinical strains
[6] = read-out: range of MIC, 5 clinical strains

CO/N=C(\C(=O)N[C@@H]1C(=O)N2C(C(=O)[O-])=C(C[n+]3ccc(C(N)=O)c4c3CCC4)CS[C@H]12)c1csc(N)n1 [Example 3]
MIC [1]: 2 µg/mL (≈ 3.59 µM)
MIC (Streptococcus faecium 8b): 12500 µg/mL (≈ 22400 µM)
MIC [2]: 781 µg/mL (≈ 1400 µM)
MIC (Escherichia coli 0 55): 31 µg/mL (≈ 55.6 µM)
MIC (Escherichia coli 1507 E): 25 µg/mL (≈ 44.8 µM)
MIC [3]: 195 µg/mL (≈ 350 µM)
MIC [4]: 7 µg/mL (≈ 12.6 µM)
MIC50 (ATCC): 0.098 µg/mL (≈ 0.176 µM)
MIC90 (ATCC): 25 µg/mL (≈ 44.8 µM)
MIC50 (D Streptococcus I; 20 clinical strains): 12.5 µg/mL (≈ 22.4 µM)
MIC90 (D Streptococcus I; 20 clinical strains): 25 µg/mL (≈ 44.8 µM)
MIC (D Streptococcus I; [5]): 12.5 to 100 µg/mL (≈ 22.4 to 179 µM)
MIC (Enterobactercloacas; read-out: range of MIC): 0.013 to 1.56 µg/mL (≈ 0.0233 to 2.8 µM)
MIC50 (Enterobactercloacas): 0.025 µg/mL (≈ 0.0448 µM)
MIC90 (Enterobactercloacas): 0.049 µg/mL (≈ 0.0879 µM)
MIC50 (Enterococcus II; 20 clinical strains): 0.025 µg/mL (≈ 0.0448 µM)
MIC90 (Enterococcus II; 20 clinical strains): 1.56 µg/mL (≈ 2.8 µM)
MIC (Enterococcus II; [5]): 0.007 to 3.12 µg/mL (≈ 0.0126 to 5.6 µM)
MIC50 (Enterococcus I; 20 clinical strains): 0.025 µg/mL (≈ 0.0448 µM)
MIC90 (Enterococcus I; 20 clinical strains): 0.049 µg/mL (≈ 0.0879 µM)
MIC (Enterococcus I; [5]): 0.013 to 0.195 µg/mL (≈ 0.0233 to 0.35 µM)
MIC50 (Escherichia coli; 20 clinical strains): 0.025 µg/mL (≈ 0.0448 µM)
MIC90 (Escherichia coli; 20 clinical strains): 0.049 µg/mL (≈ 0.0879 µM)
MIC (Escherichia coli; [5]): 0.025 to 0.391 µg/mL (≈ 0.0448 to 0.701 µM)
MIC50 (Klebsiella oxytoca; 20 clinical strains): 0.013 µg/mL (≈ 0.0233 µM)
MIC90 (Klebsiella oxytoca; 20 clinical strains): 0.098 µg/mL (≈ 0.176 µM)
MIC (Klebsiella oxytoca; [5]): 0.007 to 0.391 µg/mL (≈ 0.0126 to 0.701 µM)
MIC50 (MRSA(KAIST); 15 clinical strains): 6.25 µg/mL (≈ 11.2 µM)
MIC90 (MRSA(KAIST); 15 clinical strains): 50 µg/mL (≈ 89.7 µM)
MIC (MRSA(KAIST); read-out: range of MIC, 15 clinical strains): 0.781 to 100 µg/mL (≈ 1.4 to 179 µM)
MIC (Methicillin Resistant; read-out: range of MIC): 0.781 to 100 µg/mL (≈ 1.4 to 179 µM)
MIC50 (Methicillin Resistant): 6.25 µg/mL (≈ 11.2 µM)
MIC90 (Methicillin Resistant): 50 µg/mL (≈ 89.7 µM)
MIC50 (Morganella morganii; 5 clinical strains): 0.013 µg/mL (≈ 0.0233 µM)
MIC90 (Morganella morganii; 5 clinical strains): 0.025 µg/mL (≈ 0.0448 µM)
MIC (Morganella morganii; [6]): 0.013 to 0.025 µg/mL (≈ 0.0233 to 0.0448 µM)
MIC50 (Proteus mirabilis; 4 clinical strains): 0.013 µg/mL (≈ 0.0233 µM)
MIC90 (Proteus mirabilis; 4 clinical strains): 0.049 µg/mL (≈ 0.0879 µM)
MIC (Proteus mirabilis; read-out: range of MIC, 4 clinical strains): 0.007 to 0.049 µg/mL (≈ 0.0126 to 0.0879 µM)
MIC50 (Proteus vulgaris; 5 clinical strains): 0.025 µg/mL (≈ 0.0448 µM)
MIC90 (Proteus vulgaris; 5 clinical strains): 0.098 µg/mL (≈ 0.176 µM)
MIC (Proteus vulgaris; [6]): 0.025 to 0.098 µg/mL (≈ 0.0448 to 0.176 µM)
MIC50 (Providencia rettgeri; 6 clinical strains): 0.013 µg/mL (≈ 0.0233 µM)
MIC90 (Providencia rettgeri; 6 clinical strains): 0.049 µg/mL (≈ 0.0879 µM)
MIC (Providencia rettgeri; read-out: range of MIC, 6 clinical strains): 0.004 to 0.098 µg/mL (≈ 0.00717 to 0.176 µM)
MIC50 (Pseudomonas II): 1.56 µg/mL (≈ 2.8 µM)
MIC90 (Pseudomonas II): 6.25 µg/mL (≈ 11.2 µM)
MIC (Pseudomonas II; read-out: range of MIC): 0.781 to 12.5 µg/mL (≈ 1.4 to 22.4 µM)
MIC50 (Pseudomonas I): 3.12 µg/mL (≈ 5.6 µM)
MIC90 (Pseudomonas I): 6.25 µg/mL (≈ 11.2 µM)
MIC (Pseudomonas I; read-out: range of MIC): 0.781 to 12.5 µg/mL (≈ 1.4 to 22.4 µM)
MIC50 (Pseudomonas aeruginosa; 20 clinical strains): 3.12 µg/mL (≈ 5.6 µM)
MIC90 (Pseudomonas aeruginosa; 20 clinical strains): 6.25 µg/mL (≈ 11.2 µM)
MIC (Pseudomonas aeruginosa; [5]): 0.781 to 12.5 µg/mL (≈ 1.4 to 22.4 µM)
MIC50 (Serratia spp; 20 clinical strains): 0.025 µg/mL (≈ 0.0448 µM)
MIC90 (Serratia spp; 20 clinical strains): 0.049 µg/mL (≈ 0.0879 µM)
MIC (Serratia spp; [5]): 0.025 to 0.049 µg/mL (≈ 0.0448 to 0.0879 µM)
MIC50 (Streptococcus II; 17 clinical strains): 0.004 µg/mL (≈ 0.00717 µM)
MIC90 (Streptococcus II; 17 clinical strains): 0.007 µg/mL (≈ 0.0126 µM)
MIC (Streptococcus II; read-out: range of MIC, 17 clinical strains): 0.002 to 0.007 µg/mL (≈ 0.00359 to 0.0126 µM)
MIC (D StreptococcusII; read-out: range of MIC): 6.25 to 100 µg/mL (≈ 11.2 to 179 µM)
MIC50 (D StreptococcusII): 25 µg/mL (≈ 44.8 µM)
MIC90 (D StreptococcusII): 100 µg/mL (≈ 179 µM)
